# Activity calls are given as the source filed them. Peptide text beside a SMILES is read from it. * marks the point of attachment. Bz = O=C(c1ccccc1)*
# Assays:
# GABA-B receptor = GABA-B receptor (Homo sapiens, UniProt O75899+Q9UBS5); assay: Activation of human GABAB1/GABAB2 expressed in HEK293 cells co-transfected with rat CaV2.2 channel assessed as reduction in CaV2.2-mediated peak-current amplitude in response to the depolarizing pulse by whole cell patch clamp assay; type: cell-based, HEK293T
# Rattus norvegicus [1] = assay: Analgesic activity in Sprague-Dawley rat model of PNL injury-induced neuropathic pain assessed as pain threshold elevation percentage at 15 nmol/kg, IM administered as single dose measured after 2 to 2.5 hrs post dose; type: functional; settings: time 2-2.5 hrs
# [2] = Selectivity index, ratio of IC50 for inhibition of rat alpha9alpha10 nAChR expressed in Xenopus laevis oocytes to IC50 for activation of human GABAB1/GABAB2 expressed in HEK293 cells co-transfected with rat CaV2.2 channel assessed as reduction in CaV2.2-mediated peak Ba2+ current amplitude; type: cell-based
# [3] = biological target: Nicotinic acetylcholine receptor alpha9/alpha10 (Rattus norvegicus, UniProt P43144+Q9JLB5); assay: Inhibition of rat alpha9alpha10 nAChR expressed in Xenopus laevis oocytes assessed as inhibition of Ach-induced response at -80 mV holding potential preincubated for 5 mins followed by Ach stimulation by two electrode voltage-clamp assay; type: cell-based, Oocyte
# [4] = biological target: Neuronal acetylcholine receptor; alpha9/alpha10 (Homo sapiens, UniProt Q9GZZ6+Q9UGM1); assay: Inhibition of human alpha9alpha10 nAChR expressed in Xenopus laevis oocytes assessed as inhibition of Ach-induced response at -80 mV holding potential preincubated for 5 mins followed by Ach stimulation by two electrode voltage-clamp assay; type: cell-based, Oocyte
# Rattus norvegicus [5] = assay: Analgesic activity in Sprague-Dawley rat model of chronic constriction injury-induced neuropathic pain assessed as increase in pain threshold elevation percentage at 0.3 to 15 nmol/kg, IM administered as single dose measured after 2 to 2.5 hrs post dose; type: functional, organism-based; settings: dose 0.3-15 nmol/kg, time 2-2.5 hrs
# [6] = biological target: T1, GABA-B receptor (Homo sapiens) (UniProt Q9UBS5+O75899); assay: Activation of human GABAB1/GABAB2 expressed in HEK293 cells co-transfected with rat CaV2.2 channel assessed as reduction in CaV2.2-mediated peak-current amplitude in response to depolarizing pulse at 1 nM by whole cell patch clamp assay relative to control; type: cell-based; settings: HEK293T
# Rattus norvegicus [7] = assay: Analgesic activity in Sprague-Dawley rat model of PNL injury-induced neuropathic pain assessed as pain threshold elevation percentage at 1.5 nmol/kg, IM administered as single dose measured after 2 to 2.5 hrs post dose; type: functional; settings: time 2-2.5 hrs
# [8] = Selectivity index, ratio of IC50 for inhibition of human alpha9alpha10 nAChR expressed in Xenopus laevis oocytes to IC50 for activation of human GABAB1/GABAB2 expressed in HEK293 cells co-transfected with rat CaV2.2 channel assessed as reduction in CaV2.2-mediated peak-current amplitude; type: cell-based
# Neuron = assay: Inhibition of TTX-sensitive sodium channel in Sprague-Dawley rat DRG neuron at 10 uM at -10 mV holding potential by whole cell patch clamp technique; type: tissue-based
# Rattus norvegicus [9] = species on record: Rattus norvegicus; assay: Inhibition of TTX-resistant sodium channel in Sprague-Dawley rat DRG neuron at 10 uM at 10 mV holding potential by whole cell patch clamp technique
# [10] = biological target: T1, GABA-B receptor (Homo sapiens); assay: Activation of human GABAB1/GABAB2 expressed in HEK293 cells co-transfected with rat CaV2.2 channel assessed as reduction in CaV2.2-mediated Ba2+ peak-current amplitude in response to depolarizing pulse in presence of 1 uM GABAB receptor antagonist CGP55845 by whole cell patch clamp assay; type: cell-based; settings: HEK293T, time 6.0 hrs
# Rattus norvegicus [11] = assay: Analgesic activity in Sprague-Dawley rat model of PNL injury-induced neuropathic pain assessed as pain threshold elevation percentage at 0.3 nmol/kg, IM administered as single dose measured after 2 to 2.5 hrs post dose; type: functional; settings: time 2-2.5 hrs
# [12] = biological target: Neuronal acetylcholine receptor; alpha3/beta2 (Rattus norvegicus) (UniProt P04757+P12390); assay: Inhibition of rat alpha3beta2 nAChR expressed in Xenopus laevis oocytes assessed as inhibition of Ach-induced response at 10 uM at -80 mV holding potential preincubated for 5 mins followed by Ach stimulation by two electrode voltage-clamp assay relative to control; type: cell-based; settings: Oocyte
# [13] = biological target: Neuronal acetylcholine receptor; alpha3/beta4 (Rattus norvegicus) (UniProt P04757+P12392); assay: Inhibition of rat alpha3beta4 nAChR expressed in Xenopus laevis oocytes assessed as inhibition of Ach-induced response at 10 uM at -80 mV holding potential preincubated for 5 mins followed by Ach stimulation by two electrode voltage-clamp assay relative to control; type: cell-based; settings: Oocyte
# [14] = biological target: Neuronal acetylcholine receptor; alpha2/beta4 (Rattus norvegicus) (UniProt P12389+P12392); assay: Inhibition of rat alpha2beta4 nAChR expressed in Xenopus laevis oocytes assessed as inhibition of Ach-induced response at 10 uM at -80 mV holding potential preincubated for 5 mins followed by Ach stimulation by two electrode voltage-clamp assay relative to control; type: cell-based; settings: Oocyte
# Rattus norvegicus [15] = assay: Analgesic activity in Sprague-Dawley rat model of PNL injury-induced neuropathic pain assessed as pain threshold elevation percentage at 0.3 to 15 nmol/kg, IM administered as single dose measured after 2 to 2.5 hrs post dose; type: functional, organism-based; settings: dose 0.3-15 nmol/kg, time 2-2.5 hrs
# [16] = biological target: Neuronal acetylcholine receptor subunit alpha-7 (Rattus norvegicus) (UniProt Q05941); assay: Inhibition of rat alpha7 nAChR expressed in Xenopus laevis oocytes assessed as inhibition of Ach-induced response at 10 uM at -80 mV holding potential preincubated for 5 mins followed by Ach stimulation by two electrode voltage-clamp assay relative to control; type: cell-based; settings: Oocyte
# [17] = biological target: Neuronal acetylcholine receptor; alpha4/beta2 (Rattus norvegicus) (UniProt P09483+P12390); assay: Inhibition of rat alpha4beta2 nAChR expressed in Xenopus laevis oocytes assessed as inhibition of Ach-induced response at 10 uM at -80 mV holding potential preincubated for 5 mins followed by Ach stimulation by two electrode voltage-clamp assay relative to control; type: cell-based; settings: Oocyte
# [18] = biological target: Neuronal acetylcholine receptor; alpha2/beta2 (Rattus norvegicus) (UniProt P12389+P12390); assay: Inhibition of rat alpha2beta2 nAChR expressed in Xenopus laevis oocytes assessed as inhibition of Ach-induced response at 10 uM at -80 mV holding potential preincubated for 5 mins followed by Ach stimulation by two electrode voltage-clamp assay relative to control; type: cell-based; settings: Oocyte
# [19] = biological target: Voltage-dependent N-type calcium channel subunit alpha-1B (Rattus norvegicus) (UniProt Q02294); assay: Inhibition of rat CaV2.2 channel expressed in HEK293T cells assessed as reduction in CaV2.2-mediated peak-current amplitude in response to depolarizing pulse at 10 uM by whole cell patch clamp assay relative to control; type: cell-based
# [20] = biological target: T1, GABA-B receptor (Homo sapiens); assay: Activation of human GABAB1/GABAB2 expressed in HEK293 cells co-transfected with rat CaV2.2 channel assessed as reduction in CaV2.2-mediated peak-current amplitude in response to depolarizing pulse at 1 nM in presence of with 10 uM baclofen by whole cell patch clamp assay relative to control; type: cell-based; settings: HEK293T, filed as activator
# Sequence of Nicotinic acetylcholine receptor alpha9/alpha10 (P43144 whole entry): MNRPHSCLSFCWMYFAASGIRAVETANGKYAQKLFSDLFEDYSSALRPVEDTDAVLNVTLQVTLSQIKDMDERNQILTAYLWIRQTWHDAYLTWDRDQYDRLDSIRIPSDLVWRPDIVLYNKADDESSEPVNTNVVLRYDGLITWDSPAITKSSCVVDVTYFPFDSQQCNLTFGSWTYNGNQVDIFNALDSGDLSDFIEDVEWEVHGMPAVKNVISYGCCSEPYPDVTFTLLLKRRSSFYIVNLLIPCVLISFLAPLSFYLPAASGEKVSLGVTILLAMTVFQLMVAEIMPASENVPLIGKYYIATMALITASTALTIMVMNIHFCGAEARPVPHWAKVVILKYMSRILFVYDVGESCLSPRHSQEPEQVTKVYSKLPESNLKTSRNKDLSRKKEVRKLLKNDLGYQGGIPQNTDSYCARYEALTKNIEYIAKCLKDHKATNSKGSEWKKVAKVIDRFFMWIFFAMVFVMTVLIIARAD
# Sequence of Nicotinic acetylcholine receptor alpha9/alpha10 (Q9JLB5 whole entry): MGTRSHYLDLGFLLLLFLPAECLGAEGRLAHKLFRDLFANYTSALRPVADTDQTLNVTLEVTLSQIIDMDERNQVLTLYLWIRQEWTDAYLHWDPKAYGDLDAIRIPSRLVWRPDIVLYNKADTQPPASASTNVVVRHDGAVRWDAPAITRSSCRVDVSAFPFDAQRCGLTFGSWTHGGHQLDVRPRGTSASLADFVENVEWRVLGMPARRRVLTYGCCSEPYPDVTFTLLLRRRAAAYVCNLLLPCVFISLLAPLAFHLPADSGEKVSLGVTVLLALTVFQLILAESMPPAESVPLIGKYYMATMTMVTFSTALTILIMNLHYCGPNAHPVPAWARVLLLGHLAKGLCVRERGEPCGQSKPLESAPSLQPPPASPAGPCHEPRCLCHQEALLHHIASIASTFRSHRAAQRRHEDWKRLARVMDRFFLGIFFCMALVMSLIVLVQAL
# Sequence of Neuronal acetylcholine receptor; alpha9/alpha10 (Q9UGM1 whole entry): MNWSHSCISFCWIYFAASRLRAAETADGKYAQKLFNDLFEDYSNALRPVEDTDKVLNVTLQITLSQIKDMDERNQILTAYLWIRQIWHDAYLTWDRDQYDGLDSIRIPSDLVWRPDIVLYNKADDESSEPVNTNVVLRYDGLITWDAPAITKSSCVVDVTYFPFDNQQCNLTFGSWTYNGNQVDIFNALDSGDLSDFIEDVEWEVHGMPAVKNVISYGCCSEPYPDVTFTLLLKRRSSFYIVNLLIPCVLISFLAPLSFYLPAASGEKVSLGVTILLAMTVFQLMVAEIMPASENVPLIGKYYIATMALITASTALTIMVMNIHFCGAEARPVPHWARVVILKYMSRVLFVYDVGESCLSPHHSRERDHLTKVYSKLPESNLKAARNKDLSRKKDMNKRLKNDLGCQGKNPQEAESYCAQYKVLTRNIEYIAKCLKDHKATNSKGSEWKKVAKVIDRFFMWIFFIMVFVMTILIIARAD
# Sequence of Neuronal acetylcholine receptor; alpha9/alpha10 (Q9GZZ6 whole entry): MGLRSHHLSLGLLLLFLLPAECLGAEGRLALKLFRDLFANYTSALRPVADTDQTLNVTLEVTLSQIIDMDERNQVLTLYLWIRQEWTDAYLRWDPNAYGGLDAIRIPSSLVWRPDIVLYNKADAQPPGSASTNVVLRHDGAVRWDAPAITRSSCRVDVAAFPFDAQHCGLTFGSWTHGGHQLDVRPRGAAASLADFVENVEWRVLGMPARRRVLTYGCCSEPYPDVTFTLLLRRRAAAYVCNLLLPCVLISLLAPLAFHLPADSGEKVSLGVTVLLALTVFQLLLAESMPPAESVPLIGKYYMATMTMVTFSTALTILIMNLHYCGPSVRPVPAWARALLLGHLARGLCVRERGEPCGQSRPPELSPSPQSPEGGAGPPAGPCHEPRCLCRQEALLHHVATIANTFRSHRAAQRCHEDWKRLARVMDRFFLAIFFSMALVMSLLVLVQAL
# Sequence of GABA-B receptor (Q9UBS5 whole entry): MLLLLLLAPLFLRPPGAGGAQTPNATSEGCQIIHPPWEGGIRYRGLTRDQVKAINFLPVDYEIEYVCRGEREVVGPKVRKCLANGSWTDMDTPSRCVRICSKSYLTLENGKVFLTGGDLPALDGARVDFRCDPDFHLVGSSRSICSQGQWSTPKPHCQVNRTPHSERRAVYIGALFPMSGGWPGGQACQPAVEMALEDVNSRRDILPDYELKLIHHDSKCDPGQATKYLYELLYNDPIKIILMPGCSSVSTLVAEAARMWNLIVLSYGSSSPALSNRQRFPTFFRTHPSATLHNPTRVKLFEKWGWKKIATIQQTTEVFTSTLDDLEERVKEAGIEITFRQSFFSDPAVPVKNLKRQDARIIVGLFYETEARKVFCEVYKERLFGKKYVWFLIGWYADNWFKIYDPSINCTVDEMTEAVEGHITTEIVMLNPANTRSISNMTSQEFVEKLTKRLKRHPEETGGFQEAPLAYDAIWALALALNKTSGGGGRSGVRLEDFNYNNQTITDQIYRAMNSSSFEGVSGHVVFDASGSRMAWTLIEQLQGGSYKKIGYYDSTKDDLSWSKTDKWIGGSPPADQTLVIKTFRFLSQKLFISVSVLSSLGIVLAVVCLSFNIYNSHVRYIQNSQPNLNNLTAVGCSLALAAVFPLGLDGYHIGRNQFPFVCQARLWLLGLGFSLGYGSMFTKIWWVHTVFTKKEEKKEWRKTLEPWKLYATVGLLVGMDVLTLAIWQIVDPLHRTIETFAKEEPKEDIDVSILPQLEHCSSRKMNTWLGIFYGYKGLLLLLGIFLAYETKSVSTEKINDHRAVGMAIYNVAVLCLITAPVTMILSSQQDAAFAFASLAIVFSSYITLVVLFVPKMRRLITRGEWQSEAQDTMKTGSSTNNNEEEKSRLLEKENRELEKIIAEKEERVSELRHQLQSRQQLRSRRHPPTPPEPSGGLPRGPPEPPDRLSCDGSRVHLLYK
# Sequence of GABA-B receptor (O75899 whole entry): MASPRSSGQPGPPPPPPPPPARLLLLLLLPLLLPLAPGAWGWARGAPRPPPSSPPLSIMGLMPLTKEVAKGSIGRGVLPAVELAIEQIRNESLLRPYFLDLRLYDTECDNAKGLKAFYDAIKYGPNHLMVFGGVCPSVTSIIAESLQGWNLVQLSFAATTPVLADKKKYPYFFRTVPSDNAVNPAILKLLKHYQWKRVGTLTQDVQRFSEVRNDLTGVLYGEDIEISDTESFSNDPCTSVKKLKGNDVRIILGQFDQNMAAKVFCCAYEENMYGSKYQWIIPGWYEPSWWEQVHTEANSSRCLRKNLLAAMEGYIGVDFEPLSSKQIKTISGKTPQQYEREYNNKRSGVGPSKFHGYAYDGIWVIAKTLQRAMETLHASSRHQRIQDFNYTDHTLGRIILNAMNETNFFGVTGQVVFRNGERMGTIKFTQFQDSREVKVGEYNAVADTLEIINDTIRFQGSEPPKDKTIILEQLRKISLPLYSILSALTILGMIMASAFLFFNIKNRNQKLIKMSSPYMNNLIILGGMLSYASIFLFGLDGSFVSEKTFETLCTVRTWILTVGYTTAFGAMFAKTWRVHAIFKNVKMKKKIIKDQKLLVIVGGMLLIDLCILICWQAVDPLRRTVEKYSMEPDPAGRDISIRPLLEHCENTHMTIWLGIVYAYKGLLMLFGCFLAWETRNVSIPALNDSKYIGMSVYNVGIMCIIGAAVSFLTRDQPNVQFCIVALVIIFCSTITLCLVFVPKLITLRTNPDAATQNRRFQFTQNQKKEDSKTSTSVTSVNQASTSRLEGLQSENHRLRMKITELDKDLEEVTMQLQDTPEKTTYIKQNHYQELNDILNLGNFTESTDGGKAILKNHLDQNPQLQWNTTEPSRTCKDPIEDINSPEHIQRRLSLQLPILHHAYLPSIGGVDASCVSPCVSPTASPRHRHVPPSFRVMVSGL
# Sequence of Neuronal acetylcholine receptor subunit alpha-7 (Rattus norvegicus) (Q05941 whole entry): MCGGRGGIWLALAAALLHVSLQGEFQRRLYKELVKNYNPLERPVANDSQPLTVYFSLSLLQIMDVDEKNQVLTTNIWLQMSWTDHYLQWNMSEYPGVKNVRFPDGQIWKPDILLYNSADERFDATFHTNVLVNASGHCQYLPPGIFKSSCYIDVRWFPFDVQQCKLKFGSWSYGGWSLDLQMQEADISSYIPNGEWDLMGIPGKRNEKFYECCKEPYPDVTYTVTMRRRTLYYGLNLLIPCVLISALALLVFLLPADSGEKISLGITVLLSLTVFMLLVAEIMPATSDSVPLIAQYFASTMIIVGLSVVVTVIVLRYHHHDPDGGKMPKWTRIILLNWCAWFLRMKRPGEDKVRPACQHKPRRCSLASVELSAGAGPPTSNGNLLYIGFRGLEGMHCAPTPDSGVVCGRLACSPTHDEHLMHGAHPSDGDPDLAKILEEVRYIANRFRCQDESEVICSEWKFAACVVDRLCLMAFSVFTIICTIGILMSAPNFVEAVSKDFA
Structure (SMILES),IC50 (GABA-B receptor) [nM],Activity (Rattus norvegicus [1]) [%],Ratio IC50 [2],IC50 [3] [nM],IC50 [4] [nM],inhibition [6] [%],Ratio IC50 [8],inhibition (Neuron),inhibition (Rattus norvegicus [9]),Activity [10],other results
CC[C@H](C)[C@H](NC(=O)[C@H](CCC(=O)O)NC(=O)[C@@H]1CCCN1C(=O)[C@H](Cc1cnc[nH]1)NC(=O)[C@H](CC(=O)O)NC(=O)[C@H](Cc1ccc(O)cc1)NC(=O)[C@H](CCCNC(=N)N)NC(=O)[C@H](CS)NC(=O)[C@H](CCCNC(=N)N)NC(=O)[C@@H]1CCCN1C(=O)[C@H](CC(=O)O)NC(=O)[C@H](CO)NC(=O)[C@H](CS)NC(=O)[C@@H](N)CS)C(=O)N[C@@H](CS)C(N)=O (H-CCSDPRCRYDHPEIC-NH2),23.2,32.5,,,,,,,,,
CC[C@H](C)[C@H](NC(=O)[C@H](CCC(=O)O)NC(=O)[C@@H]1CCCN1C(=O)[C@H](Cc1cnc[nH]1)NC(=O)[C@H](CC(=O)O)NC(=O)[C@H](Cc1ccc(O)cc1)NC(=O)[C@H](CCCNC(=N)N)NC(=O)[C@H](CS)NC(=O)[C@H](CCCNC(=N)N)NC(=O)[C@@H]1CCCN1C(=O)[C@H](CC(=O)O)NC(=O)[C@H](CO)NC(=O)[C@H](CS)NC(=O)[C@H](CS)NC(=O)CNC(C)=O)C(=O)N[C@@H](CS)C(N)=O (Ac-GCCSDPRCRYDHPEIC-NH2),18.9,24.8,128,2420,,,,,,,
CC[C@H](C)[C@H](NC(=O)[C@H](CCC(=O)O)NC(=O)[C@@H]1CCCN1C(=O)[C@H](Cc1cnc[nH]1)NC(=O)[C@H](CC(=O)O)NC(=O)[C@H](Cc1ccc(O)cc1)NC(=O)[C@H](CC(N)=O)NC(=O)[C@H](CS)NC(=O)[C@H](CCCNC(=N)N)NC(=O)[C@@H]1CCCN1C(=O)[C@H](CC(=O)O)NC(=O)[C@H](CO)NC(=O)[C@H](CS)NC(=O)[C@H](CS)NC(=O)CN)C(=O)N[C@@H](CS)C(N)=O,2.4,51.1,11.8,28.3,1000,18.8,417,inactive,inactive,inactive,Activity (Rattus norvegicus [5]): Active; Activity (Rattus norvegicus [7]): 25.6%; Activity (Rattus norvegicus [11]): 12.2%
CC[C@H](C)[C@H](NC(=O)[C@H](CCC(=O)O)NC(=O)[C@@H]1CCCN1C(=O)[C@H](Cc1cnc[nH]1)NC(=O)[C@H](CCCNC(=N)N)NC(=O)[C@H](Cc1ccc(O)cc1)NC(=O)[C@H](CCCNC(=N)N)NC(=O)[C@H](CS)NC(=O)[C@H](CCCNC(=N)N)NC(=O)[C@@H]1CCCN1C(=O)[C@H](CC(=O)O)NC(=O)[C@H](CO)NC(=O)[C@H](CS)NC(=O)[C@H](CS)NC(=O)CN)C(=O)N[C@@H](CS)C(N)=O (H-GCCSDPRCRYRHPEIC-NH2),> 1000,35.3,,,,,,,,,
CC[C@H](C)[C@H](NC(=O)[C@H](CCC(=O)O)NC(=O)[C@@H]1CCCN1C(=O)[C@H](Cc1cnc[nH]1)NC(=O)[C@H](CC(=O)O)NC(=O)[C@H](Cc1ccc(O)cc1)NC(=O)[C@H](CCCNC(=N)N)NC(=O)[C@H](CS)NC(=O)[C@H](CCCNC(=N)N)NC(=O)[C@@H]1CCCN1C(=O)[C@H](CC(=O)O)NC(=O)[C@H](CO)NC(=O)[C@H](CS)NC(=O)[C@H](CS)NC(=O)CN)C(=O)N[C@@H](CS)C(N)=O (H-GCCSDPRCRYDHPEIC-NH2),4.9,85,1000,4900,363,19.6,74.1,inactive,inactive,inactive,Activity (Rattus norvegicus [5]): Active; Activity (Rattus norvegicus [7]): 47.2%; inhibition [12]: > 50%; inhibition [13]: > 50%; inhibition [14]: > 50%; Activity (Rattus norvegicus [15]): Dose-dependent effect; inhibition [16]: > 50%; Activity (Rattus norvegicus [11]): 16.7%; inhibition [17]: > 50%; inhibition [18]: > 50%
CC[C@H](C)[C@H](NC(=O)[C@H](CCC(=O)O)NC(=O)[C@@H]1CCCN1C(=O)[C@H](Cc1cnc[nH]1)NC(=O)[C@H](CC(=O)O)NC(=O)[C@H](Cc1ccc(O)cc1)NC(=O)[C@H](CCCNC(=N)N)NC(=O)[C@H](CS)NC(=O)[C@H](CCCNC(=N)N)NC(=O)[C@@H]1CCCN1C(=O)[C@H](CC(=O)O)NC(=O)[C@H](CO)NC(=O)[C@H](CS)NC(=O)[C@H](CS)NC(=O)CNC(=O)c1ccccc1)C(=O)N[C@@H](CS)C(N)=O (Bz-GCCSDPRCRYDHPEIC-NH2),0.2,80,4380,875,5930,39.7,> 25000,inactive,inactive,inactive,inhibition [19]: 2.2%; inhibition [20]: 67.4%; inhibition [12]: > 50%; inhibition [13]: > 50%; inhibition [14]: > 50%; inhibition [16]: > 50%; inhibition [17]: > 50%; inhibition [18]: > 50%
CC[C@H](C)[C@H](NC(=O)[C@H](CCC(=O)O)NC(=O)[C@@H]1CCCN1C(=O)[C@H](Cc1cnc[nH]1)NC(=O)[C@H](CC(N)=O)NC(=O)[C@H](Cc1ccc(O)cc1)NC(=O)[C@H](CCCNC(=N)N)NC(=O)[C@H](CS)NC(=O)[C@H](CCCNC(=N)N)NC(=O)[C@@H]1CCCN1C(=O)[C@H](CC(=O)O)NC(=O)[C@H](CO)NC(=O)[C@H](CS)NC(=O)[C@H](CS)NC(=O)CN)C(=O)N[C@@H](CS)C(N)=O (H-GCCSDPRCRYNHPEIC-NH2),> 1000,40.8,< 13.9,13900,,,,,,,
CC[C@H](C)[C@H](NC(=O)[C@H](CCC(=O)O)NC(=O)[C@@H]1CCCN1C(=O)[C@H](Cc1cnc[nH]1)NC(=O)[C@H](CC(=O)O)NC(=O)[C@H](Cc1ccc(O)cc1)NC(=O)[C@H](CC(N)=O)NC(=O)[C@H](CS)NC(=O)[C@H](CCCNC(=N)N)NC(=O)[C@@H]1CCCN1C(=O)[C@H](CC(=O)O)NC(=O)[C@H](CO)NC(=O)[C@H](CS)NC(=O)[C@H](CS)NC(=O)CNC(=O)c1ccccc1)C(=O)N[C@@H](CS)C(N)=O,1.2,,,,12500,,> 10000,,,,
CC[C@H](C)[C@H](NC(=O)[C@H](CCC(=O)O)NC(=O)[C@@H]1CCCN1C(=O)[C@H](Cc1cnc[nH]1)NC(=O)[C@H](CO)NC(=O)[C@H](Cc1ccc(O)cc1)NC(=O)[C@H](CCCNC(=N)N)NC(=O)[C@H](CS)NC(=O)[C@H](CCCNC(=N)N)NC(=O)[C@@H]1CCCN1C(=O)[C@H](CC(=O)O)NC(=O)[C@H](CO)NC(=O)[C@H](CS)NC(=O)[C@H](CS)NC(=O)CN)C(=O)N[C@@H](CS)C(N)=O (H-GCCSDPRCRYSHPEIC-NH2),18.6,9,,,,,,,,,

# Reference: ChEMBL document CHEMBL4680110 (2018)
